For the first assay, the target named is T1, Human complement C1s enzyme (Homo sapiens, UniProt P09871).
T1 construct: purified from human serum, Complement Technology, Inc; purchased Complement Technology, Inc; host or cells: human serum (plasma-derived natural protein)
T1 sequence (P09871 438-688 limits assumed): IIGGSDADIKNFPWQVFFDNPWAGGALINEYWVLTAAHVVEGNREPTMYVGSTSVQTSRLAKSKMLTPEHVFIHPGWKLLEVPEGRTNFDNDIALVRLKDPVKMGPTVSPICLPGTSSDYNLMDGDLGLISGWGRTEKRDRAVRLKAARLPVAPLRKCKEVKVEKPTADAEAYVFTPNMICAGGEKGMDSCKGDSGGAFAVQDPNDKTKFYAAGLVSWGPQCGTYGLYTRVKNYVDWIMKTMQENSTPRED
T1 sequence (P09871 16-437 partner limits assumed): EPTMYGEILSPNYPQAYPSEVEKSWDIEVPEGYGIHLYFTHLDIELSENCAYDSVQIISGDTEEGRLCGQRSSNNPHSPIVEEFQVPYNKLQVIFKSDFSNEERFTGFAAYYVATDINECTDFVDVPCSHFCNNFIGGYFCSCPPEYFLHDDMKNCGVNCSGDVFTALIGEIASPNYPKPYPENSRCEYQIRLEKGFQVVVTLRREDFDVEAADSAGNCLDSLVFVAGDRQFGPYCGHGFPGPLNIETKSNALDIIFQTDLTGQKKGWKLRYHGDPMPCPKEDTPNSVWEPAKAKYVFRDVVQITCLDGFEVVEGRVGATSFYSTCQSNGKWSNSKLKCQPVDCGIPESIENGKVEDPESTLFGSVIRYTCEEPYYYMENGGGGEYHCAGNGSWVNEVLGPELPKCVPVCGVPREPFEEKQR
The experiment in a line: Human C1s Enzyme Assay. Format: biochemical. The settings on record: Table 1; C1s purified from human serum, 1.16 nM; substrate Z-L-Lys-SBzl; read-out: C1s Protease Activity. How it is done: Example 4. Human C1s Enzyme Assay
Human complement C1s enzyme (purified from human serum, Complement Technology, Inc.) at 1.16 nM final concentration is incubated with test compound at various concentrations for 5 min at room temperature in 50 mM Tris, 1 M NaCl, pH 7.5. A synthetic substrate Z-L-Lys-SBzl and DTNB (Ellman's reagent) are added to final concentrations of 100 μM each. Absorbance at 405 nm (A405) is recorded at 30 second intervals for 30 min using a microplate spectrophotometer. IC50 values are calculated by nonlinear regression of complement C1s reaction rates as a function of test compound concentration.
On to `N=C(N)CCCNC(=O)[C@@H]1CCCN1C(=O)CNC(=O)c1ccc(Oc2ccccc2)cc1` [Compound 28, (S)-N-(4-amino-4-iminobutyl)-1-((4-phenoxybenzoyl)glycyl)pyrrolidine-2-carboxamide], for which the IC50 was more than 1000 nM. On to `C[C@@]12C[C@@H]1N(C(=O)CNC(=O)c1ccc(Oc3ccccc3)cc1)[C@H](C(=O)NCc1cc(C(=N)N)cs1)C2` [Compound 9, (1S,3S,5S)—N-[(4-Carbamimidoylthiophen-2-yl)methyl]-5-methyl-2-{2-[(4-phenoxyphenyl)formamido]acetyl}-2-azabicyclo[3.1.0]hexane-3-carboxamide], for which the IC50 is less than 100 nM.

On to `N=C(N)c1csc(CNC(=O)[C@@H]2CC3(CN2C(=O)CNC(=O)c2ccc(Oc4ccccc4)cc2)OCCO3)c1` [Compound 2, (8S)—N-[(4-carbamimidoylthiophen-2-yl)methyl]-7-{2-[(4-phenoxyphenyl)formamido]acetyl}-1,4-dioxa-7-azaspiro[4.4]nonane-8-carboxamide], for which the IC50 was less than 100 nM. For `N=C(N)c1cccc(CNC(=O)[C@@H]2CC3(CN2C(=O)CNC(=O)c2ccc(Oc4ccccc4)cc2)OCCO3)c1` [Compound 18, (8S)—N-[(3-Carbamimidoylphenyl)methyl]-7-{2-[(4-phenoxyphenyl)formamido]acetyl}-1,4-dioxa-7-azaspiro[4.4]nonane-8-carboxamide], the IC50 was more than 1000 nM.

Turning to `N=C(N)CCCCNC(=O)[C@@H]1CC2(CN1C(=O)CNC(=O)c1ccc(Oc3ccccc3)cc1)OCCO2` [Compound 17, (8S)—N-(4-Carbamimidoylbutyl)-7-{2-[(4-phenoxyphenyl)formamido]acetyl}-1,4-dioxa-7-azaspiro[4.4]nonane-8-carboxamide], the IC50 is more than 1000 nM. For the molecule `N=C(N)CCCCNC(=O)[C@@H]1CCCN1C(=O)CNC(=O)c1ccc(Oc2ccccc2)cc1` [Compound 29, (S)-N-(5-amino-5-iminopentyl)-1-((4-phenoxybenzoyl)glycyl)pyrrolidine-2-carboxamide], the IC50 is more than 1000 nM. Consider `N=C(N)c1csc(CNC(=O)[C@@H]2CC3(CCCC3)CN2C(=O)CNC(=O)c2ccc(Oc3ccccc3)cc2)c1` [Compound 12, (3S)—N-[(4-Carbamimidoylthiophen-2-yl)methyl]-2-{2-[(4-phenoxyphenyl)formamido]acetyl}-2-azaspiro[4.4]nonane-3-carboxamide], for which the IC50 is less than 100 nM. On to `NCCCCCCNC(=O)[C@@H]1CC2(CN1C(=O)CNC(=O)c1ccc(Oc3ccccc3)cc1)OCCO2` [Compound 27, (8S)—N-(6-Aminohexyl)-7-{2-[(4-phenoxyphenyl)formamido]acetyl}-1,4-dioxa-7-azaspiro[4.4]nonane-8-carboxamide], for which the IC50 was more than 1000 nM. As for `N=C(N)CCCNC(=O)[C@@H]1CC2(CN1C(=O)CNC(=O)c1ccc(Oc3ccccc3)cc1)OCCO2` [Compound 16, (8S)—N-(3-Carbamimidoylpropyl)-7-{2-[(4-phenoxyphenyl)formamido]acetyl}-1,4-dioxa-7-azaspiro[4.4]nonane-8-carboxamide], the IC50 is more than 1000 nM. As to `N=C(N)c1csc(CNC(=O)[C@@H]2CCCN2C(=O)NNC(=O)c2ccc(Oc3ccccc3)cc2)c1` [Compound 36, (S)-N-((4-carbamimidoylthiophen-2-yl)methyl)-1-(2-(4-phenoxybenzoyl)hydrazine-1-carbonyl)pyrrolidine-2-carboxamide], the IC50 fell in the range of 100 to 1000 nM.

For the molecule `CO[C@H]1C[C@@H](C(=O)NCc2cc(C(=N)N)cs2)N(C(=O)CNC(=O)c2ccc(Oc3ccccc3)cc2)C1` [Compound 33, (2S,4S)—N-[(4-carbamimidoylthiophen-2-yl)methyl]-4-methoxy-1-{2-[(4-phenoxyphenyl)formamido]acetyl}pyrrolidine-2-carboxamide], the IC50 was less than 100 nM. Same read-out and setting: as for `N=C(N)c1csc(CNC(=O)C2N(C(=O)CNC(=O)c3ccc(Oc4ccccc4)cc3)CC23CCC3)c1` (stereo not shown) [Compound 7, N-[(4-Carbamimidoylthiophen-2-yl)methyl]-2-{2-[(4-phenoxyphenyl)formamido]acetyl}-2-azaspiro[3.3]heptane-1-carboxamide], the figure is less than 100 nM; as for `Cc1ccc(Oc2ccc(C(=O)NCC(=O)N3CC4(C[C@H]3C(=O)NCc3cc(C(=N)N)cs3)OCCO4)cc2)cc1` [Compound 1, (8S)—N-[(4-carbamimidoylthiophen-2-yl)methyl]-7-(2-{[4-(4-methylphenoxy)phenyl]formamido}acetyl)-1,4-dioxa-7-azaspiro[4.4]nonane-8-carboxamide], less than 100 nM.

The assay is the same for the next values; noted with them: Table 2; C1s purified from human serum, 1.16 nM; substrate Z-L-Lys-SBzl; read-out: C1s Protease Activity.
For `CCCCCCCCCC(=O)NCC(=O)N1CCC[C@H]1C(=O)NCc1cc(C(=N)N)cs1` [Compound 86, (S)-N-((4-carbamimidoylthiophen-2-yl)methyl)-1-(decanoylglycyl)pyrrolidine-2-carboxamide], the IC50 is less than 100 nM. Same read-out and setting: to `CO[C@@H]1C[C@H](C(=O)CNC(=O)c2ccc(Oc3ccccc3)cc2)[C@@H](C(=O)NCc2cc(C(=N)N)cs2)C1` [Compound 62, N-(2-((1S,2S,4R)-2-(((4-carbamimidoylthiophen-2-yl)methyl)carbamoyl)-4-methoxycyclopentyl)-2-oxoethyl)-4-phenoxybenzamide] belongs more than 1000 nM. On to `N=C(N)c1csc(CNC(=O)[C@@H]2CCCN2C(=O)COCc2ccc(Oc3ccccc3)cc2)c1` [Compound 38, (S)-N-((4-carbamimidoylthiophen-2-yl)methyl)-1-(2-((4-phenoxybenzyl)oxy)acetyl)pyrrolidine-2-carboxamide], for which the IC50 fell in the range of 100 to 1000 nM. Still for that read-out and setting: as for `CCCc1ccc(C(=O)NCC(=O)N2CCC[C@H]2C(=O)NCc2cc(C(=N)N)cs2)cc1` [Compound 72, (S)-N-((4-carbamimidoylthiophen-2-yl)methyl)-1-((4-propylbenzoyl)glycyl)pyrrolidine-2-carboxamide], the figure is less than 100 nM. `N/C(=N\O)c1csc(CNC(=O)[C@@H]2CC3(CN2C(=O)CNC(=O)c2ccc(Oc4ccccc4)cc2)OCCO3)c1` [Compound 66, (S,Z)-N-((4-(N′-hydroxycarbamimidoyl)thiophen-2-yl)methyl)-7-((4-phenoxybenzoyl)glycyl)-1,4-dioxa-7-azaspiro[4.4]nonane-8-carboxamide]: the IC50 is less than 100 nM. Same read-out and setting: to `CCCCCCCCC(=O)NCC(=O)N1CCC[C@H]1C(=O)NCc1cc(C(=N)N)cs1` [Compound 85, (S)-N-((4-carbamimidoylthiophen-2-yl)methyl)-1-(nonanoylglycyl)pyrrolidine-2-carboxamide] belongs less than 100 nM. `N=C(N)c1csc(CNC(=O)[C@@H]2CCCN2C(=O)CCC2(c3ccc(Oc4ccccc4)cc3)CC2)c1` [Compound 44, (S)-N-((4-carbamimidoylthiophen-2-yl)methyl)-1-(3-(1-(4-phenoxyphenyl)cyclopropyl)propanoyl)pyrrolidine-2-carboxamide]: the IC50 is more than 1000 nM.

The same assay, now with this note: Table 3; C1s purified from human serum, 1.16 nM; substrate Z-L-Lys-SBzl; read-out: C1s Protease Activity.
With `Cc1ccccc1O[C@H]1C[C@@H](C(=O)NCc2cc(C(=N)N)cs2)N(C(=O)CNC(=O)c2ccc(Oc3ccccc3)cc2)C1` [Compound 105, (2S,4S)-N-((4-carbamimidoylthiophen-2-yl)methyl)-1-((4-phenoxybenzoyl)glycyl)-4-(o-tolyloxy)pyrrolidine-2-carboxamide], the IC50 was less than 100 nM. On the same count and under the same terms, to `N=C(N)c1ccc(CNC(=O)[C@@H]2CC3(CN2C(=O)CNC(=O)c2ccc(Oc4ccccc4)cc2)OCCO3)s1` [Compound 92, (S)-N-((5-carbamimidoylthiophen-2-yl)methyl)-7-((4-phenoxybenzoyl)glycyl)-1,4-dioxa-7-azaspiro[4.4]nonane-8-carboxamide] belongs less than 100 nM; to `Cc1cccc(O[C@H]2C[C@@H](C(=O)NCc3cc(C(=N)N)cs3)N(C(=O)CNC(=O)c3ccc(Oc4ccccc4)cc3)C2)c1` [Compound 104, (2S,4S)-N-((4-carbamimidoylthiophen-2-yl)methyl)-1-((4-phenoxybenzoyl)glycyl)-4-(m-tolyloxy)pyrrolidine-2-carboxamide], less than 100 nM.

In the case of `C[C@@]12C[C@@H]1N(C(=O)CNC(=O)c1ccc(Oc3ccccc3)cc1)[C@H](C(=O)NCc1ccc(C(=N)N)s1)C2` [Compound 107, (1S,3S,5S)-N-((5-carbamimidoylthiophen-2-yl)methyl)-5-methyl-2-((4-phenoxybenzoyl)glycyl)-2-azabicyclo[3.1.0]hexane-3-carboxamide], the IC50 is less than 100 nM. The same measure, in the same setting: to `N=C(N)c1csc(NC(=O)[C@@H]2CC3(CN2C(=O)CNC(=O)c2ccc(Oc4ccccc4)cc2)OCCO3)c1` [Compound 91, (S)-N-(4-carbamimidoylthiophen-2-yl)-7-((4-phenoxybenzoyl)glycyl)-1,4-dioxa-7-azaspiro[4.4]nonane-8-carboxamide] belongs more than 1000 nM.

The values above are taken from US12479856B2, “Pharmaceutical compounds for the treatment of complement mediated disorders” (Achillion Pharmaceuticals, Inc., priority 2019, dated 2025).
